Measured values from patent publication US20040018528A1, “Novel biomarkers of tyrosine kinase inhibitor exposure and activity in mammals” (Sugen, Inc., priority 2002, published 2004).
Where “and” joins values, the source holds several entries; their conditions need not be identical. Equal entries are not always repeated.

How the values were obtained:
Assay type in all cases: in vivo, human
PBMC = experiment: Affymetrix microarray expression profiling of PBMC, Compound B Trial A; details: PBMC day 56 vs day 1
Protocol: Patient samples were derived from 2 randomized, open-label, multicenter Phase III clinical trials comparing standard of care chemotherapy alone or combined with Compound B in patients with metastatic colorectal cancer. In both trials Compound B was delivered twice weekly at a dose of 145 mg/m^2 via I.V. infusion. In the first trial (designated Trial A), the standard of care chemotherapy consisted of weekly administration of 5-FU and leucovorin (Rosewell Park regimen); in the second trial (designated Trial B), the standard of care chemotherapy consisted of weekly or bi-weekly administration of 5-FU, leucovorin and Irinotecan (CPT-11). A total of 23 patient sample pairs were included in Affymetrix microarray expression profiling analysis, 2 females and 9 males in the Compound B treatment arm, and 2 females and 10 males in the control arm. The median patient age was 66 and 65 years for the Compound B treatment arm and control arm, respectively. For RT-verification experiments, samples from 12 females and 24 males from the Compound B treatment arm, and 14 females and 17 males from the control arm were used. The median age for these patients was 62 and 60 years, respectively. Clinical response criteria were defined according to RECIST guidelines.
All blood samples were collected into Vacutainer tubes containing sodium heparin. Ten 10 ml of blood was withdrawn from patients prior to receiving any treatment on day 1 and also prior to dosing at end of cycle 1 (day 56 in Trial A; day 42 in Trial B). For peripheral blood mononuclear cell (PBMC) preparations, blood samples were shipped overnight at ambient temperature to a central processing facility (Quest Diagnostics, Inc., Collegeville, Pa., USA) for PBMC isolation via Ficoll gradient method. Purified PBMCs were shipped in RNA lysis buffer (Clontech, Palo Alto, Calif., USA) to SUGEN where isolation of total RNA was performed. For Trial B, whole peripheral blood samples were directly frozen at the clinical sites and shipped on dry ice to SUGEN for RNA isolation.
Total RNA was purified from PBMC samples using Clontech Nucleospin RNA II kit reagents (Clontech, Palo Alto, Calif.) and from whole blood samples using MRC TRI Reagent BD (Molecular Research Center, Cincinnati, Ohio, USA), an adaptation of the Chomczynski single step method, according to the manufacturer's instructions. All sample preparations included a treatment with RNAse-free DNAse. RNA yields were measured by UV absorbance and RNA quality was assessed by agarose gel electrophoresis with ethidium bromide staining for visualization of ribosomal RNA band integrity.
In these experiments, equal amounts of starting material were used for pre- and post-treatment samples from each donor (typically 2 μg). Briefly, the protocol was as follows: double-stranded cDNA was synthesized from total RNA (2 μg), with Invitrogen Life Technologies SuperScript Choice system reagents (Invitrogen, Carlsbad, Calif.). The T7-(dT)24 oligomer was used for priming first-strand cDNA synthesis. Double-stranded cDNA product was purified via phenol-chloroform extraction, then used as template in first round of in vitro transcription (IVT) of cRNA. […] The cRNA product was then purified with Qiagen spin column clean-up protocol and used as template in second round of cDNA synthesis. This second round of synthesis was similar to the first round except that random hexamers were used in priming of first-strand synthesis, with T7-(dT)24 oligomer priming the second-strand. Purification of the cDNA was as in the first round. The second round of IVT of cRNA was as in the first round but with biotinylated ribonucleotides rather than non-biotinylated ribonucleotides. Purified cRNA was quantitated, chemically fragmented according to Affymetrix protocol, and then hybridized overnight on Human Genome U95A Arrays (which contain probe sets for the detection of approximately 12,600 transcripts). […]

PAI-1 [1] = experiment: PAI-1 plasma levels in Compound B trial patients; details: after 56 days of treatment
PBMC and whole blood RNA = experiment: SYBR Green quantitative RT-PCR of PBMC / whole blood RNA, Compound B Trials A and B; details: end of one treatment cycle relative to baseline, two Phase III trials
Protocol: Primers were designed with Primer Express 1.5 software (Applied Biosystems). In all cases, primers were designed to bind within the sequence that was used in Affymetrix probe set designs (target sequence information available on Affymterix NetAffx website). Total RNA samples (1 μg) were reverse transcribed to yield first-strand cDNA using the Applied Biosystems Reverse Transcription Reagents protocol (Applied Biosystems, Foster City, Calif.). The reverse transcription reactions were then diluted 1:5 in distilled H2O. […] For individual reactions, 10 μl of each sample were combined with 15 μl of SYBR Green PCR Master Mix (Applied Biosystems) containing the appropriate primer pair at 350 nM. Data was extracted and amplification plots generated with ABI SDS software. […]
The relative expression data for a select subset of potential biomarkers were tested for differences between the Compound B (treatment) and the standard of care (control) arms. […] Results from three different cross-validations were evaluated to select the best set of predictable biomarkers: (1) jackknife method (dropping one case at a time); (2) randomly splitting the pooled data into two halves, prediction (for building model) and validation (for testing model); and (3) using the first trial as prediction and the later trial as validation sets, respectively. […]

MIG [2] = experiment: MIG plasma ELISA, Compound 1 Phase I trials; details: individual patients
Protocol: (§1) In Trials A and B, patients received Compound 1.
(§2) Data analysis was performed for each marker.

I-TAC = I-TAC plasma ELISA, Compound 1 Phase I trials; details: individual patients
Protocol: as §1, §2

VEGF/PLGF heterodimers = experiment: Hybrid ELISA for VEGF/PLGF heterodimers in patient plasma; details: Trial C
From the text: Heterodimers of VEGF and PLGF have been reported in the scientific literature. To measure heterodimers, a hybrid ELISA assay was used, combining reagents from both the R&D Systems VEGF and PLGF ELISA kits (where VEGF antibodies are used in capture step and PLGF antibodies are used in detection step).

MIG [3] = experiment: MIG plasma ELISA, Compound 1 Phase I trials; details: Trial C patients, FIG. 17
IP-10 = IP-10 plasma ELISA, Compound 1 Phase I trials; details: individual patients; >500 = above highest standard
Protocol: as §1, §2

[4] = tested on: RNA transcripts in patient whole blood; experiment: Affymetrix DNA array and TaqMan qRT-PCR of whole blood RNA of patients given Compound A; details: Affymetrix GeneChip
Protocol: TRI Reagent® BD—RNA, DNA, protein isolation reagent was used according to the manufacturer's protocol, Molecular Research Center, Inc. (Cincinnati, Ohio) <www.mrcgene.com>.
Images were scanned with a Hewlett-Packard GeneArray scanner.
To determine the fold change, the AD of the post-treatment sample was divided by the AD of the pre-dose samples.
All probes contained a reporter dye (FAM) and a dye quencher (MGB). QRT-PCR was performed using 20 ng of total RNA with TaqMan® One-Step RT-PCR Master Mix Reagents Kit (Applied Biosystems) following the manufacturer's protocol. […] VEGF (Genbank accession number AF022375) transcripts were amplified using forward primer […] (SEQ ID NO: 165), reverse primer […] (SEQ ID NO: 166), and probe […] (SEQ ID NO: 167) to generate an 82-bp amplicon product. Vinculin (Genbank accession number M33308) transcripts were amplified using forward primer […] (SEQ ID NO: 168), reverse primer […] (SEQ ID NO: 169), and probe […] (SEQ ID NO: 170) to generate a 124-bp amplicon product. PECAM-1 (Genbank accession number L34657) transcripts were amplified using forward primer […] (SEQ ID NO: 171), reverse primer […] (SEQ ID NO: 172), and probe […] (SEQ ID NO: 173) to generate a 56-bp amplicon product. MAPK Kinase 3 (Genbank accession number L36719) transcripts were amplified using forward primer […] (SEQ ID NO: 174), reverse primer […] (SEQ ID NO: 175), and probe […] (SEQ ID NO: 176) to generate a 77-bp amplicon product. Hemoglobin, epsilon 1 (Genbank accession number AI349593) transcripts were amplified using forward primer […] (SEQ ID NO: 177), reverse primer […] (SEQ ID NO: 178), and probe […] (SEQ ID NO: 179) to generate a 66-bp amplicon product. GAPDH and 18S were ordered as pre-developed assay reagents (PDARs) from Applied Biosystems and used as endogenous controls.
Where ΔΔCt=(Cttarget−Ctcontrol)post-dose−(Cttarget−Ctcontrol)pre-dose.

VEGF = experiment: ELISA of VEGF in plasma of patients given Compound A; details: cancer patients; 24 hours after first dose vs before; dosed twice over 24 hours
Protocol: (§3) (Minneapolis, Minn.). Human plasminogen activator inhibitor-1 (PAI-1) and human tissue factor (TF) ELISA kits were obtained from American Diagnostica, Inc. (Greenwich, Conn.). All ELISAs were performed on plasma samples according to the manufacturers' instructions.

PAI-1 [5] = experiment: ELISA of PAI-1 in plasma of patients given Compound A; details: cancer patients; 24 hours after first dose vs before; dosed twice over 24 hours
Protocol: as §3

TIMP-1 = experiment: ELISA of TIMP-1 in plasma of patients given Compound A; details: cancer patients; 24 hours after first dose vs before; dosed twice over 24 hours
Protocol: as §3

[6] = patients with Increase call, Trial A, with 5-FU/leucovorin
[7] = advanced solid malignancies, 24 hours after first dose vs before

## Cc1cc(C)c(/C=C2\C(=O)Nc3ccccc32)[nH]1 [Compound B, 3-(3,5-dimethyl-1H-pyrrol-2-ylmethylene)-1,3-dihdyro-indol-2-one]
PBMC; Compound B (SU5416) arm, highest of the 13 transcripts
  average fold change of lactoferrin transcript: 33
PBMC; Compound B (SU5416) arm, lowest of the 13 transcripts
  average fold change of hypothetical protein FLJ13052 transcript: 2.6
PBMC; [6]
  Increased in SU5416 arm: Antileukoprotease transcript: 9 of 11
  Increased in SU5416 arm: BPI transcript: 9 of 11
  Increased in SU5416 arm: CD24 antigen transcript: 9 of 11
  Increased in SU5416 arm: CEA CAM 8 transcript: 9 of 11
  Increased in SU5416 arm: Defensin α 3 transcript: 10 of 11
  Increased in SU5416 arm: Defensin α 4 transcript: 10 of 11
  Increased in SU5416 arm: Hypothetic. Protein FLJ13052 transcript: 7 of 11
  Increased in SU5416 arm: Lactoferrin transcript: 11 of 11
  Increased in SU5416 arm: Lipocalin 2 transcript: 10 of 11
  Increased in SU5416 arm: Liver arginase transcript: 9 of 11
  Increased in SU5416 arm: MMP-9 transcript: 8 of 11
  Increased in SU5416 arm: S100 P transcript: 9 of 11
  Increased in SU5416 arm: Thrombospondin 1 transcript: 9 of 11
PBMC; all cases of the Compound B arm
  number of the 13 genes showing induction in each case: at least 6
PAI-1 [1]; patients with MR (minor response) at end of cycle 1
  median PAI-1 plasma level, day 56: 23.93 ng/mL
PAI-1 [1]; patients with PD (progressive disease) at end of cycle 1
  median PAI-1 plasma level, day 56: 34.8 ng/mL
PBMC and whole blood RNA
  expression of CD24, lactoferrin, LCN2 and MMP-9 transcripts: significantly induced

## CCN(CC)CCNC(=O)c1c(C)[nH]c(C=C2C(=O)Nc3ccc(F)cc32)c1C.O=C(O)C[C@H](O)C(=O)O [malate salt of Compound 1, L-malate salt of 5-(5-fluoro-2-oxo-1,2-dihydroindol-3-ylidenemethyl)-2,4-dimethyl-1H-pyrrole-3-carboxylic acid(2-diethylaminoethyl)amide]
MIG [2]; cycle 1
  MIG plasma level, day 15: 339.16
MIG [2]; in pg/mL (unit assumed)
  MIG plasma level, end C1 dosing: 995.47 and 81.439 and 145.64 and 698.23 and 1066.2 and 344.93 and 907.09 and 314.2
I-TAC; cycle 1
  I-TAC plasma level, day 15: 2020.2
I-TAC; in pg/mL (unit assumed)
  I-TAC plasma level, end C1 dosing: 771.04 and 701.46 and 315.69
VEGF/PLGF heterodimers
  patients tested with increase in plasma levels of VEGF/PLGF heterodimer: 3 of 3
MIG [3]
  chemokine MIG plasma level during treatment: induced
IP-10
  IP-10 plasma level, end C1 dosing: >500 (4×) and 240.31 and 384.06

## Cc1[nH]c(/C=C2\C(=O)Nc3ccccc32)c(C)c1CCC(=O)O [Compound A, 3-[2,4-dimethyl-5-(2-oxo-1,2-dihydro-indol-3-ylidenemethyl)-1H-pyrrol-3-yl]-propionic acid]
[4]; [7]
  level of VEGF RNA in whole blood: increase
  level of vinculin RNA in whole blood: increase
[4]; day 28 vs day 0, dosed about 2 times per day
  levels of 26 RNA transcripts in patient blood: increased and/or decreased
VEGF
  level of VEGF in plasma: increased
PAI-1 [5]
  level of PAI-1 in plasma: increased
TIMP-1
  level of TIMP-1 in plasma: increased
